The test system of one experiment is Ba/F3 Parental. The experiment in a line: Ba/F3 viability assay (CellTiter-Glo), parental. It is filed as cell-based. The note with it: Mus musculus, BaF3, anti-proliferation. The source says: (§1) Inhibition of cell proliferation can be studied using Ba/F3 viability assays, including the Promega CellTiter-Glo cell viability assay. This assay can be used to study the effect of compounds described herein in the following assays: (1) Ba/F3 Parental; (2) Ba/F3 EGFR-Del19/T790M; (3); Ba/F3 EGFR-Del19/C797S; and (4) Ba/F3 EGFR-Del19/T790M/C797S.
(ATP-based viability assays read luminescence as a measure of living cells.)

The target of another experiment is Ba/F3 EGFR-Del19/C797S (Homo sapiens, UniProt P00533, C797S, cells depend on it, form not given). Put plainly: Ba/F3 viability assay (CellTiter-Glo), DC. It is filed as cell-based. The note with it: anti-proliferation, read-out: BaF3 DC IC50.
Sequence of Ba/F3 EGFR-Del19/C797S (P00533 with tags, fused parts or gaps DEL746-750/C797S, form open): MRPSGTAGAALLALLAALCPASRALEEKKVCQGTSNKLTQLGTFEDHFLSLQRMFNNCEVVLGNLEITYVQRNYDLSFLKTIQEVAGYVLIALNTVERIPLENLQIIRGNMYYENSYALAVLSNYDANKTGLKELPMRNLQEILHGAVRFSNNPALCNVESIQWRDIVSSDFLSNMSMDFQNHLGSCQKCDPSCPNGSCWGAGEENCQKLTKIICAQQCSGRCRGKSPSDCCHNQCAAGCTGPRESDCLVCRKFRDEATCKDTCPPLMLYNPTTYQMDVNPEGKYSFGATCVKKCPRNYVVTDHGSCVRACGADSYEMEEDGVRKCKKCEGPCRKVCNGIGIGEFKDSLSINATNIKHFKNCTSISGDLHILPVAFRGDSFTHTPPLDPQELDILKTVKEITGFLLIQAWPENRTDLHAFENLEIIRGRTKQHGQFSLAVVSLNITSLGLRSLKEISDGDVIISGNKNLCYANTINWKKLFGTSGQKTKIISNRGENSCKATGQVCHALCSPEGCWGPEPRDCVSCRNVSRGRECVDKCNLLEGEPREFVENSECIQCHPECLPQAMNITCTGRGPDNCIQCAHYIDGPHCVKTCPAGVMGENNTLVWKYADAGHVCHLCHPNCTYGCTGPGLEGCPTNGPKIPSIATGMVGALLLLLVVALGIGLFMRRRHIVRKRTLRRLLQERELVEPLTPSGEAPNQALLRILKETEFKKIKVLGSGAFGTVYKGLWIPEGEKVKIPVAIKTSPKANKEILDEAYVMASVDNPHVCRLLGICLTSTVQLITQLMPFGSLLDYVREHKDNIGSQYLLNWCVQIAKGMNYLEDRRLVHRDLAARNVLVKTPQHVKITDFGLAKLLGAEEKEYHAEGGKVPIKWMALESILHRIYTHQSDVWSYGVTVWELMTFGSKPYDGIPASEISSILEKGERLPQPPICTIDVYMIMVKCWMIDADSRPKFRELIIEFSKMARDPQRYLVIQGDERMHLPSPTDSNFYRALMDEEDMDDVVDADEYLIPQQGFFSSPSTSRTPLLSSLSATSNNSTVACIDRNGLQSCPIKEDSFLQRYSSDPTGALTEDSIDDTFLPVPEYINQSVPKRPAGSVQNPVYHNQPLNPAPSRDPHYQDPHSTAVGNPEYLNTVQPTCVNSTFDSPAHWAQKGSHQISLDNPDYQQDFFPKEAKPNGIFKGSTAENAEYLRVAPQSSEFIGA
From the text: as §1

A further experiment addresses EGFR^L858R/T790M/C^797S (Homo sapiens, UniProt P00533, C797S/L858R/T790M). Put plainly: in vitro kinase assay (HTRF KinEASE-TK kit), LTC. It is filed as biochemical. The note with it: kinase inhibition. The text has this:
(§2) Assays using an in vitro kinase assay kit (HTRF KinEASE-TK kit) can be used to study the inhibitory activity of compounds described herein with respect to EGFR mutants such as EGFR^L858R, EGFR^L58R/T790M, and EGFR^L858R/T790M/C^797S.
(TR-FRET usually uses a lanthanide donor and a delayed reading to cut background.)

Another experiment addresses EGFR^L858R (Homo sapiens, UniProt P00533, L858R). Put plainly: in vitro kinase assay (HTRF KinEASE-TK kit), L. It is filed as biochemical. The note with it: kinase inhibition.
From the text: as §2

Experiment [1] concerns the target Ba/F3 EGFR-Del19/T790M/C797S (Homo sapiens, UniProt P00533, T790M/C797S, cells depend on it, form not given). Put plainly: Ba/F3 viability assay (CellTiter-Glo), DTC. It is filed as cell-based. The note with it: anti-proliferation, read-out: BaF3 DTC IC50.
From the text: as §1

Another experiment has as its target Ba/F3 EGFR-Del19/T790M (Homo sapiens, UniProt P00533, T790M, cells depend on it, form not given). The experiment in a line: Ba/F3 viability assay (CellTiter-Glo), DT. It is filed as cell-based. To be noted: anti-proliferation, read-out: BaF3 DT IC50.
From the text: as §1

For a further experiment, the target named is EGFR^L58R/T790M (Homo sapiens, UniProt P00533, L858R/T790M). The experiment in a line: in vitro kinase assay (HTRF KinEASE-TK kit), LT. The note with it: kinase inhibition. It is filed as biochemical.
Sequence of EGFR^L58R/T790M (P00533 25-1210 T790M/L858R): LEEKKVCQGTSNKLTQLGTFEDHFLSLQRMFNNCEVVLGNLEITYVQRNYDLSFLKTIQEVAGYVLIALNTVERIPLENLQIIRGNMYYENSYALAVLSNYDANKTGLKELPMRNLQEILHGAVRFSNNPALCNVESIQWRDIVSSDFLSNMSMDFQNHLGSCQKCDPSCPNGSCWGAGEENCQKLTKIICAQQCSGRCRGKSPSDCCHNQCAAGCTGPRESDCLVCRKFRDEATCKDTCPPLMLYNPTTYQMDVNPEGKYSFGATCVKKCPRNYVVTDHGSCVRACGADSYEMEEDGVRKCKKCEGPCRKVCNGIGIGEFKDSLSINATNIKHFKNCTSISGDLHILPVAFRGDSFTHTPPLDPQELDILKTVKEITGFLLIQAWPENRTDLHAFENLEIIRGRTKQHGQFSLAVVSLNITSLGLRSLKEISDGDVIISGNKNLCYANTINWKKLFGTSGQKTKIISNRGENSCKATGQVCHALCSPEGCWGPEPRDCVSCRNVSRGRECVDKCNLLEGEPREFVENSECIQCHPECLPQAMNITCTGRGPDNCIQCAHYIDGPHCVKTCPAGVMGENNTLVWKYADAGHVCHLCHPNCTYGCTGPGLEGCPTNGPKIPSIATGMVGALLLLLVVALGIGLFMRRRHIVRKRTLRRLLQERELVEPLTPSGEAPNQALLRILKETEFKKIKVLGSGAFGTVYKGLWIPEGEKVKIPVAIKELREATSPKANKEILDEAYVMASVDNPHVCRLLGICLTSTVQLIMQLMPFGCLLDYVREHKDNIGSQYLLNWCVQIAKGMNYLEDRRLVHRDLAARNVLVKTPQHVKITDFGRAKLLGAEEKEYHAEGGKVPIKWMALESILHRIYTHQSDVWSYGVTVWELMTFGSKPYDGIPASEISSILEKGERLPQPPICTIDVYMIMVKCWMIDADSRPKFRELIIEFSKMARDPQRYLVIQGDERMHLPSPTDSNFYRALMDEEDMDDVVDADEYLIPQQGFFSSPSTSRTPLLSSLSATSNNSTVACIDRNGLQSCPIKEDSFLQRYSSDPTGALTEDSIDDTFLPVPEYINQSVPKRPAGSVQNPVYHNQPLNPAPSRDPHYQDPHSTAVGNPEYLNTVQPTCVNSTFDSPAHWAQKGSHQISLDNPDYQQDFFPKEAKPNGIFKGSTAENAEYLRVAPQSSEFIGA
From the text: as §2

Sequence of EGFR^L858R (P00533 25-1210 L858R): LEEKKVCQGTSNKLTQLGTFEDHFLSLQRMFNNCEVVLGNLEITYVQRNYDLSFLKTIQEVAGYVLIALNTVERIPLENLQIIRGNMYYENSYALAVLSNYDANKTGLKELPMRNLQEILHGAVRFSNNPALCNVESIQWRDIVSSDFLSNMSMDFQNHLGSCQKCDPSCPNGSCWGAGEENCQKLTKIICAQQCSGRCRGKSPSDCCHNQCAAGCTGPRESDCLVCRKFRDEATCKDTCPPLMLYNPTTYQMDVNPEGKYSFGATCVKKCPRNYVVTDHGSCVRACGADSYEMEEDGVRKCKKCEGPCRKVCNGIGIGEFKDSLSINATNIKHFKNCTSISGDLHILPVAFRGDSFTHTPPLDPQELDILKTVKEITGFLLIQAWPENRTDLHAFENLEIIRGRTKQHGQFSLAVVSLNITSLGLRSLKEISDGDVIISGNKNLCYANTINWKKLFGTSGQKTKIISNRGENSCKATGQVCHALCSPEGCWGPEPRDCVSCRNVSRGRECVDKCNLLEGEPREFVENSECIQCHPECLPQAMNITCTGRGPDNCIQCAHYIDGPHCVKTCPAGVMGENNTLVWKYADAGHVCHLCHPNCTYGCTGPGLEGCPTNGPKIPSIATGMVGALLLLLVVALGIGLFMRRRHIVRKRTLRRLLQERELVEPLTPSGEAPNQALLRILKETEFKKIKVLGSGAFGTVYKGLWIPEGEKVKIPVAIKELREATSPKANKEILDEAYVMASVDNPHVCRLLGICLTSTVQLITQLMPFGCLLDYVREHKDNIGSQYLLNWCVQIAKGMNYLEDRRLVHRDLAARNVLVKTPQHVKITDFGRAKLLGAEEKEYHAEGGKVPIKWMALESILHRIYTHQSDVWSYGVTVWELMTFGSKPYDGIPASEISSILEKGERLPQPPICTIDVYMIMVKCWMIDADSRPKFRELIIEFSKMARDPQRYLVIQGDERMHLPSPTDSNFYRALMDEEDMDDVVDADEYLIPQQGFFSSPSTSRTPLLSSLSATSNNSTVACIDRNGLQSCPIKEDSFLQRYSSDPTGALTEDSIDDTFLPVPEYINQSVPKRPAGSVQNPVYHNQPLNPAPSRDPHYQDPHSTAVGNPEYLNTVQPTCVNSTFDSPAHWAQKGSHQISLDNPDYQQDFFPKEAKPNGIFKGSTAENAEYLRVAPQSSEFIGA
Sequence of Ba/F3 EGFR-Del19/T790M/C797S (P00533 with tags, fused parts or gaps DEL746-750/T790M/C797S, form open): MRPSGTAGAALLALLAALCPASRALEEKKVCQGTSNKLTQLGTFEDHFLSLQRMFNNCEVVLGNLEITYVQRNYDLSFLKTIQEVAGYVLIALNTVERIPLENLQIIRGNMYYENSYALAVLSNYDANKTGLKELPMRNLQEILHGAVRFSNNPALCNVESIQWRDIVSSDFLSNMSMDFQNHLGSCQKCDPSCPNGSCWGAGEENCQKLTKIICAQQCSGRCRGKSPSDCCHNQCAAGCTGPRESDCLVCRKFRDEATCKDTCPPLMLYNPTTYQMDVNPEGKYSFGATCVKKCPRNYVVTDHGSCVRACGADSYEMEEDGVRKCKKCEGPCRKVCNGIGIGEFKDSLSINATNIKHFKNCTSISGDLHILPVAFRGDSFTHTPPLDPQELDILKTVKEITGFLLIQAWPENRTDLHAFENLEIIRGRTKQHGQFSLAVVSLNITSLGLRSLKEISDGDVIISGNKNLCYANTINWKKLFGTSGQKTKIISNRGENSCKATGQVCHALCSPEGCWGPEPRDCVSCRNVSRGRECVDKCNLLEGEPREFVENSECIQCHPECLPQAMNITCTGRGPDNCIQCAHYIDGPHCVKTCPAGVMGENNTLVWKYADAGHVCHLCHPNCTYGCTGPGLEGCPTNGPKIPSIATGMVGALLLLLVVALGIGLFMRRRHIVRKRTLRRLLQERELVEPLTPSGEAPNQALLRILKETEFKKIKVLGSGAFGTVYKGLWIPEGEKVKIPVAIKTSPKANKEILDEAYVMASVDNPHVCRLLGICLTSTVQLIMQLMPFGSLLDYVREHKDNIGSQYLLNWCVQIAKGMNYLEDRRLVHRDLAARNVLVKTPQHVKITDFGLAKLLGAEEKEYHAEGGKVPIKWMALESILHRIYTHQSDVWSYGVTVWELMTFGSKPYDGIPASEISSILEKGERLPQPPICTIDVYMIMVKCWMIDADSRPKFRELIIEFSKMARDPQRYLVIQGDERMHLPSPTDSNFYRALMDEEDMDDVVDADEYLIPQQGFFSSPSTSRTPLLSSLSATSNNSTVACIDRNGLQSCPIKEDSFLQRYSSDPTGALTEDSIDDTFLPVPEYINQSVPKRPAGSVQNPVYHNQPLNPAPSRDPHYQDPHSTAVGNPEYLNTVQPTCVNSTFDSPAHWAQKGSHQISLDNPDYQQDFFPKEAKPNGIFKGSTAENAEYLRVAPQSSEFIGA

For `Cc1nn(CCC(C)(C)O)cc1-c1nn2c3cc(ncc13)Nc1ccnc(n1)-c1cnn(C)c1OCCCC2C` (stereo not shown) [(89)], the IC50 – broadly, the midpoint of a concentration-inhibition curve – is 0.1 to 1 µM in the experiment with Ba/F3 Parental, below 0.01 µM against EGFR^L858R/T790M/C^797S, 0.01 to 0.1 µM against EGFR^L858R and below 0.01 µM on EGFR^L58R/T790M. The GI50 (on Ba/F3 EGFR-Del19/C797S; in experiment [1]; on Ba/F3 EGFR-Del19/T790M) was 0.01 to 0.1 µM throughout.
For the compound `C[C@H]1CCOc2c(cnn2C)-c2nccc(n2)Nc2cc3c(cn2)c(-c2ccc(CN4CCCCC4)n2C)nn31` [(121)], the IC50 in the experiment with Ba/F3 Parental was 0.1 to 1 µM; on EGFR^L858R/T790M/C^797S it was below 0.01 µM; against EGFR^L858R it was below 0.01 µM; at EGFR^L58R/T790M, below 0.01 µM. For the same compound, the GI50 (at Ba/F3 EGFR-Del19/C797S; in experiment [1]; on Ba/F3 EGFR-Del19/T790M) was below 0.01 µM in each case.
On to `Cc1nc(-c2nn3c4cc(ncc24)Nc2ccnc(n2)-c2cnn(C)c2OCC[C@@H]3C)sc1CN(C)C` [(171)], for which the IC50 with Ba/F3 Parental was 0.1 to 1 µM; against EGFR^L858R/T790M/C^797S, below 0.01 µM; on EGFR^L858R, below 0.01 µM; at EGFR^L58R/T790M, below 0.01 µM. Further, the GI50 (on Ba/F3 EGFR-Del19/C797S; in experiment [1]; at Ba/F3 EGFR-Del19/T790M) was 0.01 to 0.1 µM each time.
On to `CC1CCOc2c(cnn2C)-c2nccc(n2)Nc2cc3c(cn2)c(-c2cccn2CCN(C)C)nn31` (stereo not shown) [(12), 2-[2-(11,16-dimethyl-13-oxa-2,6,10,11,17,18,22,25-octazapentacyclo[15.5.2.13,7.08,12.020,24]pentacosa-1(22),3,5,7(25),8(12),9,18,20,23-nonaen-19-yl)pyrrol-1-yl]-N,N-dimethyl-ethanamine], for which the half-maximal inhibitory concentration (IC50) was 0.1 to 1 µM in the experiment with Ba/F3 Parental, below 0.01 µM against EGFR^L858R/T790M/C^797S, 0.01 to 0.1 µM against EGFR^L858R and below 0.01 µM on EGFR^L58R/T790M. The GI50 (at Ba/F3 EGFR-Del19/C797S; in experiment [1]; at Ba/F3 EGFR-Del19/T790M) was 0.01 to 0.1 µM throughout.
With `C[C@H]1CCOc2c(cnn2C)-c2nccc(n2)Nc2cc3c(cn2)c(-c2ccc(CN4CC[C@H](N(C)C)C4)n2C)nn31` [(187)], the IC50 with Ba/F3 Parental was 0.1 to 1 µM; against EGFR^L858R/T790M/C^797S it was below 0.01 µM; against EGFR^L858R it was below 0.01 µM; against EGFR^L58R/T790M, below 0.01 µM. The GI50 (on Ba/F3 EGFR-Del19/C797S; in experiment [1]; on Ba/F3 EGFR-Del19/T790M) was below 0.01 µM in each case.
As for `C[C@H]1CCOc2c(cnn2C)-c2nccc(n2)Nc2cc3c(cn2)c(-c2cccc(CN4CCOCC4)c2)nn31` [(177)], the IC50 with Ba/F3 Parental is 0.1 to 1 µM; against EGFR^L858R/T790M/C^797S, below 0.01 µM; against EGFR^L858R, 0.01 to 0.1 µM; against EGFR^L58R/T790M, below 0.01 µM. Moreover, the GI50 is 0.01 to 0.1 µM at Ba/F3 EGFR-Del19/C797S, below 0.01 µM in experiment [1] and 0.01 to 0.1 µM at Ba/F3 EGFR-Del19/T790M.
As to `CCN1CCc2c(cc(-c3nn4c5cc(ncc35)Nc3ccnc(n3)-c3cnn(C)c3OCC[C@@H]4C)n2C)C1C` (stereo partly shown) [(161)], the IC50 with Ba/F3 Parental is 0.1 to 1 µM; against EGFR^L858R/T790M/C^797S it was below 0.01 µM; at EGFR^L858R it was below 0.01 µM; against EGFR^L58R/T790M, below 0.01 µM. The GI50 is 0.01 to 0.1 µM on Ba/F3 EGFR-Del19/C797S, below 0.01 µM in experiment [1] and below 0.01 µM on Ba/F3 EGFR-Del19/T790M.
Regarding `CC1CCOc2c(cnn2C)-c2nccc(n2)Nc2cc3c(cn2)c(-c2ccc(CN4CCN(C)CC4)o2)nn31` (stereo not shown) [(63), 11,16-dimethyl-19-[5-[(4-methylpiperazin-1-yl)methyl]-2-furyl]-13-oxa-2,6,10,11,17,18,22,25-octazapentacyclo[15.5.2.13,7.08,12.020,24]pentacosa-1(22),3,5,7(25),8(12),9,18,20,23-nonaene], the IC50 is 0.1 to 1 µM with Ba/F3 Parental, below 0.01 µM at EGFR^L858R/T790M/C^797S, below 0.01 µM at EGFR^L858R and below 0.01 µM at EGFR^L58R/T790M. Also, the GI50 on Ba/F3 EGFR-Del19/C797S was below 0.01 µM; in experiment [1], 0.01 to 0.1 µM; on Ba/F3 EGFR-Del19/T790M, 0.01 to 0.1 µM.
On to `C[C@H]1CCOc2c(cnn2C)-c2nccc(n2)Nc2cc3c(cn2)c(-c2ccc(CN4CCN(C5COC5)CC4)n2C)nn31` [(124)], for which the IC50 in the experiment on Ba/F3 Parental is 0.1 to 1 µM; at EGFR^L858R/T790M/C^797S it was below 0.01 µM; on EGFR^L858R, below 0.01 µM; at EGFR^L58R/T790M, below 0.01 µM. Further, the GI50 (at Ba/F3 EGFR-Del19/C797S; in experiment [1]; at Ba/F3 EGFR-Del19/T790M) was below 0.01 µM in each case.
As for `Cn1ncc2c1OCCCn1nc(N3CCCC3C(=O)O)c3cnc(cc31)Nc1ccnc-2n1` (stereo not shown) [(65)], the IC50 with Ba/F3 Parental was 0.1 to 1 µM; at EGFR^L858R/T790M/C^797S it was below 0.01 µM; on EGFR^L858R, 0.1 to 1 µM; on EGFR^L58R/T790M it was below 0.01 µM. The GI50 (at Ba/F3 EGFR-Del19/C797S; in experiment [1]; on Ba/F3 EGFR-Del19/T790M) was 0.1 to 1 µM throughout.

The values above are taken from US20230148005A1, “MACROCYCLIC COMPOUNDS AND USES THEREOF” (THESEUS PHARMACEUTICALS, INC., priority 2020, published 2023).
